Counter-ions that a name gives are not always drawn. Like-named read-outs stand apart in the source and are kept apart here.

These results are taken from EP2913333A1 (priority 2014, dated 2015).

One assay concerns the target T1, E. feacium DltA (Enterococcus faecium, UniProt Q3XZT7).
T1 sequence (Q3XZT7 1-504): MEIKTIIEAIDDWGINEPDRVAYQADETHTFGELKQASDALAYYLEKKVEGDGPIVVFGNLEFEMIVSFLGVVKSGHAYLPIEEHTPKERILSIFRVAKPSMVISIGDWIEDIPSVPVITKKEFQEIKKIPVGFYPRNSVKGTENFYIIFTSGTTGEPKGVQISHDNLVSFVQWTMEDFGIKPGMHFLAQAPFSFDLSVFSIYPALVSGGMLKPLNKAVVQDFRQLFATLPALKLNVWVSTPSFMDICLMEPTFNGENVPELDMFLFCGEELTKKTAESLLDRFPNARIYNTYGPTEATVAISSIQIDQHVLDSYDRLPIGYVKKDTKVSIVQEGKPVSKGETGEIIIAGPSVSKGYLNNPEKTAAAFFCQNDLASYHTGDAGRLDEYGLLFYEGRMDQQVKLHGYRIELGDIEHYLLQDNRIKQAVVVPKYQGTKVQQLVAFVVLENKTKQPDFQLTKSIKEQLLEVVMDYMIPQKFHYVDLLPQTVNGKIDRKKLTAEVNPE
Nature of the assay: in vitro DltA activity assay (luminescence, IC50 determination). In kind it is biochemical. How it is done:
(§1) The effect of the compounds of the invention on DltA enzymes has been based on the measure of their inhibition of DltA activity in vitro. To this end, recombinant proteins DltA were expressed and purified after cloning of the genes of S. aureus, E. faecalis, E. faecium and S. agalactiae as described thereafter. The capacity of the compounds of the invention to inhibit DltA enzymatic activity was assessed using the DltA assays as described below: • The dltA gene was amplified from chromosomal DNA of S. aureus, E. faecalis, E. faecium and S. agalactiae and introduced into E. coli BL21 (Invitrogen, Carlsbad, CA) following manufacturer's instruction. Bacteria were grown at 37°C under aerobic conditions and isopropyl-beta-D-thiogalactopyranoside (IPTG) was added to 0.5-1 mM when OD600 of the bacterial culture had reached 0.5. After a further incubation for 3 hours, cells were harvested by centrifugation. Purification of the recombinant DltA protein was performed by affinity chromatography on nickel-nitrilotriacetic acid (Ni-NTA) column following manufacturer's instructions (Qiagen). Fractions containing recombinant DltA protein were adjusted to 50% glycerol and stored at -20°C until use.
(§2) The binding potency of the inhibitors against DltA enzyme was assessed by IC50 determination in an in vitro DltA activity assay. The assay buffer "AB" contained 50 mM Hepes pH8.0, 10mM MgCl2, 50mM KCI, 0.012% Triton-X100, 10mM DTT and 100nM Myelin-basic protein. The following components were added in a white polystyrene Costar plate up to a final volume of 30µL: 3µL DMSO, or inhibitor dissolved in DMSO and 27µL DltA enzyme in AB. After 30min of preincubation at room temperature, 30µL of Substrates mix in AB were added in each well to a final volume of 60µL. This reaction mixture was then composed of DltA (produced in house from S. aureus, E. faecalis, E. faecium and S. agalactiae), 0.5mM D-Alanine (Sigma), 0.5-5µM ATP (Sigma) and 0.05 u/ml inorganic pyrophosphatase (Sigma) in assay buffer. After typically 1-2hours of incubation at room temperature (conversion rate around 30%), 30µL of the revelation mix were added to a final volume of 90µL, including the following constituents at the respective final concentrations: 10000 u/ml luciferase (Sigma), 30µM D-luciferin (Sigma), 100µM N-acetylcysteamine (Aldrich). Luminescence intensity was immediately measured on a Fluostar Optima (BMG) (excitation 360nm, emission 520nm) and converted into inhibition percentages.
(§3) For compounds interfering with the luminescent signal (quenching), the same experiment without DltA enzyme was performed to allow quenching determination and correction.

The target in another assay is T2, S. aureus DltA (Staphylococcus aureus, UniProt Q2FZW6).
T2 construct: made in house; host or cells: E. coli BL21
T2 sequence (Q2FZW6 1-485): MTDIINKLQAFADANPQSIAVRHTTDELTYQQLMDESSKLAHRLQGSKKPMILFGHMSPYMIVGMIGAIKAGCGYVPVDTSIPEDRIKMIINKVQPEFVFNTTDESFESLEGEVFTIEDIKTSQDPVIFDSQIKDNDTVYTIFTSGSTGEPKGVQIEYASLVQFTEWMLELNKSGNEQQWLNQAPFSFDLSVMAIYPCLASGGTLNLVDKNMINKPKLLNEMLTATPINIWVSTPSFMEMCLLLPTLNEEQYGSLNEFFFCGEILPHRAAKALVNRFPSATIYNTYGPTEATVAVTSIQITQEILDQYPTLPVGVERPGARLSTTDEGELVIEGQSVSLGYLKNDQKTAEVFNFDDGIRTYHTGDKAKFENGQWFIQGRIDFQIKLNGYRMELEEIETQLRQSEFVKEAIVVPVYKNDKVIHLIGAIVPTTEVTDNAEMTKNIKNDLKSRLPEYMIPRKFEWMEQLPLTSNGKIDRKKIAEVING
The assay is described as above. In kind it is biochemical. How it is done: as §1, §2, §3

The next assay addresses T3, E. feacalis DltA (Enterococcus faecalis, UniProt Q830N0).
T3 sequence (Q830N0 1-506): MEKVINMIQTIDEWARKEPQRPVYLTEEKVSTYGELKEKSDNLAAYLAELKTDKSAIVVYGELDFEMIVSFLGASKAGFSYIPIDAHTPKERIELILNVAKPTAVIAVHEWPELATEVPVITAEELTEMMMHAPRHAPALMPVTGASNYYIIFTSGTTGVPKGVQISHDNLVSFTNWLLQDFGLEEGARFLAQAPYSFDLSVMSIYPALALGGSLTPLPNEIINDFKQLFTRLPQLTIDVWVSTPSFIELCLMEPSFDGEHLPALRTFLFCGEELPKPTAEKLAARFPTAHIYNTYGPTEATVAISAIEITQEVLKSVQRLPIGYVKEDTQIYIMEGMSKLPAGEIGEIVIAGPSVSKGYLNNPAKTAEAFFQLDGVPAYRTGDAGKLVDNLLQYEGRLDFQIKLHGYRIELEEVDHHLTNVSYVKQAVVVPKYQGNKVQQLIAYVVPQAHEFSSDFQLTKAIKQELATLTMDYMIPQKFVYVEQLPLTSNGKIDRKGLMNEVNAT
Description: biochemical. How it is done:
as §1, with “To” for “The effect of the compounds of the invention on DltA enzymes has been based on the measure of their inhibition of DltA activity in vitro. To”
as §2, §3

Another assay deals with T4, S. Agalactiae DltA (Streptococcus agalactiae serotype III, UniProt Q8VM67).
T4 sequence (Q8VM67 1-511): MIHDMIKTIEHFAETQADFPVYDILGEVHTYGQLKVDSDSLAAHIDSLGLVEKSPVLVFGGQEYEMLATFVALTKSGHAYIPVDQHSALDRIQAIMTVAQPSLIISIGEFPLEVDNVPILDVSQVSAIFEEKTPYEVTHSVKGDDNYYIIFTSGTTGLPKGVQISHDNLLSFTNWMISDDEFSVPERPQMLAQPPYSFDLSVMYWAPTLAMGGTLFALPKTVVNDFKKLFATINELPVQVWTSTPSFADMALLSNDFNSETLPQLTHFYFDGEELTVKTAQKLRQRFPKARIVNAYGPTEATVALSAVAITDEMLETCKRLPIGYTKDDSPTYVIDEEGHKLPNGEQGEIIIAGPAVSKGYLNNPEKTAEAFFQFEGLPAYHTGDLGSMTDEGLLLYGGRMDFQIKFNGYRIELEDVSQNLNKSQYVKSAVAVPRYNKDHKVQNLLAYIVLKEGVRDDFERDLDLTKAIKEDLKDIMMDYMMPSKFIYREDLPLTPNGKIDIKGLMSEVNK
Nature of the assay: biochemical. How it is done:
as §1, with “To” for “The effect of the compounds of the invention on DltA enzymes has been based on the measure of their inhibition of DltA activity in vitro. To”
as §2, §3

The mark [1] stands for this setting: recombinant DltA, 30min preincubation at room temperature, 0.5mM D-Alanine, 0.5-5µM ATP, read-out: E. feacium DltA IC50.

With `O=c1[nH]cnc2c(-c3ccc4c(c3)ncn4C3CCCCC3)cn(C3CCNC3)c12` (stereo not shown) [Example 77, 7-(1-Cyclohexyl-1H-benzimidazol-5-yl)-5-pyrrolidin-3-yl-3,5-dihydro-pyrrolo[3,2-d]pyrimidin-4-one], the IC50 – broadly, the concentration needed to halve the response being measured – at E. feacium DltA (setting [1]) was found to be 510 nM; against S. aureus DltA it was 93 nM; on E. feacalis DltA, 130 nM; against S. Agalactiae DltA it was 1600 nM.
With `O=c1[nH]cnc2c(-c3ccc4c(c3)ncn4C3CCCCC3)cn([C@H]3CC[C@@H](CO)CC3)c12` [Example 74, 7-(1-Cyclohexyl-1H-benzimidazol-5-yl)-5-[cis-(4-hydroxymethyl-cyclohexyl)]-3,5-dihydro-pyrrolo[3,2-d]pyrimidin-4-one], the IC50 is 140 nM on E. feacium DltA (setting [1]), 150 nM on S. aureus DltA, 93 nM at E. feacalis DltA and 1100 nM at S. Agalactiae DltA.
The like results for `O=c1[nH]cnc2c(-c3ccc4c(c3)ncn4C3CCCCC3)sc(N3C[C@@H]4[C@@H](CO)[C@@H]4C3)c12` [Example 30, 7-(1-Cyclohexyl-1H-benzimidazol-5-yl)-5-((1R,5S,6R)-6-hydroxymethyl-3-aza-bicyclo[3.1.0]hex-3-yl)-3H-thieno[3,4-d]pyrimidin-4-one] were, in that order, 320 nM, 220 nM, 160 nM and 2000 nM.
In the case of `O=c1[nH]cnc2c(-c3ccc4c(c3)ncn4C3CCCCC3)sc(N3CC4CNCC4(CO)C3)c12` (stereo not shown) [Example 34, 7-(1-cyclohexyl-1H-benzoimidazol-5-yl)-5-hydroxymethyl-hexahydro-pyrrolo[3,4-c]pyrrol-2-yl)-3H-thieno[3,4-d]pyrimidin-4-one hydrochloride], the IC50 is 61 nM against E. feacium DltA, 27 nM on S. aureus DltA, 14 nM against E. feacalis DltA and 400 nM at S. Agalactiae DltA.
Turning to `O=c1[nH]cnc2c(-c3ccc4c(c3)ncn4C3CCCCC3)cn(C3CCCC(O)C3)c12` (racemic) [Example 70A, 7-(1-Cyclohexyl-1H-benzimidazol-5-yl)-5-(3-hydroxy-cyclohexyl)-3,5-dihydro-pyrrolo[3,2-d]pyrimidin-4-one], the IC50 at E. feacium DltA (setting [1]) was 920 nM; on S. aureus DltA it was 660 nM; at E. feacalis DltA, 570 nM; against S. Agalactiae DltA, 2400 nM.
As to `O=c1[nH]cnc2c(-c3ccc4c(c3)ncn4C3CCCCC3)cn(CCCCCO)c12` [Example 68, 7-(1-Cyclohexyl-1H-benzimidazol-5-yl)-5-(5-hydroxy-pentyl)-3,5-dihydro-pyrrolo[3,2-d]pyrimidin-4-one], the IC50 is 730 nM on E. feacium DltA (setting [1]), 290 nM on S. aureus DltA, 320 nM against E. feacalis DltA and 4500 nM on S. Agalactiae DltA.
In the same order, the values of `O=c1[nH]cnc2c(-c3ccc4c(c3)ncn4C3CCCCC3)sc(N3CC4CNCC4C3)c12` (stereo not shown) [Example 25, 7-(1-Cyclohexyl-1H-benzoimidazol-5-yl)-5-(hexahydro-pyrrolo[3,4-c]pyrrol-2-yl)-3H-thieno[3,4-d]pyrimidin-4-one hydrochloride] are 88 nM, 39 nM, 22 nM and 630 nM.
In the case of `COCCn1cnc2cc(-c3sc(N4CC[C@H](CO)C4)c4c(=O)[nH]cnc34)ccc21` [Example 46, 5-((S)-3-hydroxymethyl-pyrrolidin-1-yl)-7-[1-(2-methoxy-ethyl)-1H-benzoimidazol-5-yl]-3H-thieno[3,4-d]pyrimidin-4-one], the IC50 at E. feacium DltA (setting [1]) worked out at 440 nM; on S. aureus DltA it was 150 nM; against E. feacalis DltA it was 150 nM; against S. Agalactiae DltA it was 5100 nM.
As to `O=c1[nH]cnc2c(-c3ccc4c(c3)ncn4C3CCCCC3)sc(C3=CCNCC3)c12` [Example 37, 7-(1-cyclohexyl-1H-benzoimidazol-5-yl)-5-(1,2,3,6-tetrahydro-pyridin-4-yl)-3H-thieno[3,4-d]pyrimidin-4-one hydrochloride], the IC50 is 42 nM at E. feacium DltA (setting [1]), 68 nM on S. aureus DltA, 25 nM against E. feacalis DltA and 660 nM against S. Agalactiae DltA.
`O=c1[nH]cnc2c(-c3ccc4c(c3)ncn4C3CCCCC3)cn(CCCO)c12` [Example 67, 7-(1-Cyclohexyl-1H-benzimidazol-5-yl)-5-(3-hydroxy-propyl)-3,5-dihydro-pyrrolo[3,2-d]pyrimidin-4-one]: the half-inhibitory concentration (IC50) at E. feacium DltA (setting [1]) was 930 nM; against S. aureus DltA it was 150 nM; on E. feacalis DltA, 180 nM; on S. Agalactiae DltA, 3800 nM.
